Columns and labels:
NRK [1] = assay: Effect on morphological reversion in src transformed NRK cells at 100 ug/mL; assay type: functional; conditions: Rattus norvegicus
NRK [2] = assay: Effect on morphological reversion in src transformed NRK cells at 3 ug/mL; assay type: functional; conditions: Rattus norvegicus
NRK [3] = assay: Effect on morphological reversion in src transformed NRK cells at 10 ug/mL; assay type: functional; conditions: Rattus norvegicus
[4] = biological target: T1, Isoleucine--tRNA ligase, cytoplasmic (Homo sapiens, UniProt P41252); assay: Inhibition of IleRS
T1 sequence (P41252 whole entry): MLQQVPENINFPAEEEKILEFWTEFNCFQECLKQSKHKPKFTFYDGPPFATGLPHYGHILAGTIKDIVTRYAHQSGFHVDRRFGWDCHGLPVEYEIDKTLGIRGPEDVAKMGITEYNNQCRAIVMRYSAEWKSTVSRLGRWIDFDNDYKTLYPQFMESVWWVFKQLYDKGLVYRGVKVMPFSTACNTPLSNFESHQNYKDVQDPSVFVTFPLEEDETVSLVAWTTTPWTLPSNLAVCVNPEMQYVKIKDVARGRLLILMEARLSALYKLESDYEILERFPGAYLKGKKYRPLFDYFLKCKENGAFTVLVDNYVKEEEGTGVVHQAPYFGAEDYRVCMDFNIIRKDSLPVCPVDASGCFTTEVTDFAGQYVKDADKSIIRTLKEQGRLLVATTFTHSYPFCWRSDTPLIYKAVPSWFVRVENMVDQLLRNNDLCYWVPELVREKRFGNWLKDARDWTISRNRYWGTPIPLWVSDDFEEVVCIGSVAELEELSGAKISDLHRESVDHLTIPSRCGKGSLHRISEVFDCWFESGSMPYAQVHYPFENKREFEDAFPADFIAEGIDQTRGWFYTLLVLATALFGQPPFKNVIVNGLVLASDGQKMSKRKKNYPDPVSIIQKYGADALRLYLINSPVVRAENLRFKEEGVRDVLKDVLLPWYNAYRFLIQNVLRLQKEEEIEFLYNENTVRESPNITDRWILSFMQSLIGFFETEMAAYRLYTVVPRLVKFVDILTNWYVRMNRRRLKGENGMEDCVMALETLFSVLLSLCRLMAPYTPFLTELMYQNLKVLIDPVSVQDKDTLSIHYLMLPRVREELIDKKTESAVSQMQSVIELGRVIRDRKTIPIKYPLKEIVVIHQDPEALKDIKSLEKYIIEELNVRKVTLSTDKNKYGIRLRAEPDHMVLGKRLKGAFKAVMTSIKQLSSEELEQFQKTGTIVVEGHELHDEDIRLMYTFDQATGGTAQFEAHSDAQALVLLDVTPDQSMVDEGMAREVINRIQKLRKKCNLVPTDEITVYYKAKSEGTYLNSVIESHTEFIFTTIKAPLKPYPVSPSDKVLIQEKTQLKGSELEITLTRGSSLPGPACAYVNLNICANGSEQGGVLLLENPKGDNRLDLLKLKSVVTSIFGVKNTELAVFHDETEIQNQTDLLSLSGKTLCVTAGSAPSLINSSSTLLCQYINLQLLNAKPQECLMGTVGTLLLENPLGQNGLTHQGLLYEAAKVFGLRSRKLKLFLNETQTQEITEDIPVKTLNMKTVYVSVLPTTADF

NRK [5] = assay: Effect on morphological reversion in src transformed NRK cells at 30 ug/mL; assay type: functional; conditions: Rattus norvegicus
Osteoclast = assay: Induction of apoptosis in mouse osteoclasts; assay type: functional
NRK [6] = assay: Effect on morphological reversion in src transformed NRK cells at 1 ug/mL; assay type: functional; conditions: Rattus norvegicus
NRK [7] = assay: Effect on morphological reversion in src transformed NRK cells at 0.3 ug/mL; assay type: functional; conditions: Rattus norvegicus

SMILES | inhibition at 100 µg/mL (NRK [1]) | inhibition at 3 µg/mL (NRK [2]) | inhibition at 10 µg/mL (NRK [3]) | IC50 [4] | inhibition at 30 µg/mL (NRK [5]) | Activity (Osteoclast) | inhibition at 1 µg/mL (NRK [6]) | inhibition at 0.3 µg/mL (NRK [7])
CC(/C=C/[C@H](O)[C@@H](C)/C=C/C(=O)O)=C\C[C@H]1O[C@]2(CC[C@H](C)[C@H](/C=C/C(C)=C/C(=O)O)O2)CC[C@@H]1C [SPIROFUNGIN B] | < 10% | < 10% | < 10% | > 1990 nM | < 10% | >30 µg/mL | – | –
CCCC[C@@]1(OC(=O)CCC(=O)O)CC[C@]2(CC[C@H](C)[C@@H](C/C=C(C)/C=C/[C@H](O)[C@@H](C)CCC(=O)O)O2)O[C@H]1/C=C/C(C)=C/C(=O)O [2,3-DIHYDROREVEROMYCIN A] | > 80% | 10% | 20% | 17.5 nM | 50% | 0.22 µg/mL | – | –
CC(/C=C/[C@H](O)[C@@H](C)/C=C/C(=O)O)=C\C[C@H]1O[C@@]2(CC[C@H](C)[C@H](/C=C/C(C)=C/C(=O)O)O2)CC[C@@H]1C [SPIROFUNGIN A] | > 80% | < 10% | 10% | 1120 nM | 20% | >30 µg/mL | – | –
CCCC[C@@]1(OC(=O)CCC(=O)OC)CC[C@]2(CC[C@H](C)[C@@H](C/C=C(C)/C=C/[C@H](O)[C@@H](C)/C=C/C(=O)O)O2)O[C@H]1/C=C/C(C)=C/C(=O)O | > 80% | > 80% | > 80% | 434 nM | > 80% | 2.5 µg/mL | 10% | –
CCCC[C@@]1(OC(=O)CCC(=O)O)CC[C@]2(CC[C@H](C)[C@@H](C/C=C(C)/C=C/[C@H](O)[C@@H](O)/C=C/C(=O)O)O2)O[C@H]1/C=C/C(C)=C/C(=O)O [4-HYDROXY REVEROMYCIN A] | > 80% | < 10% | 10% | 21.7 nM | 20% | 1.01 µg/mL | < 10% | < 10%
CCCC[C@@]1(OCSC)CC[C@]2(CC[C@H](C)[C@@H](C/C=C(C)/C=C/[C@H](O)[C@@H](C)/C=C/C(=O)O)O2)O[C@H]1/C=C/C(C)=C/C(=O)O | > 80% | – | < 10% | 801 nM | 20% | 9.6 µg/mL | – | –
CCCC[C@@]1(OC)CC[C@]2(CC[C@H](C)[C@@H](C/C=C(C)/C=C/[C@H](O)[C@@H](C)/C=C/C(=O)O)O2)O[C@H]1/C=C/C(C)=C/C(=O)O | > 80% | – | 20% | 101 nM | > 80% | – | – | –
CCCC[C@@]1(OC(=O)CCC(=O)O)CC[C@]2(CC[C@H](C)[C@@H](C/C=C(C)/C=C/[C@@H](O)[C@@H](C)/C=C/C(=O)O)O2)O[C@H]1/C=C/C(C)=C/C(=O)O [5-EPIREVEROMYCIN A] | < 10% | < 10% | < 10% | 572 nM | < 10% | 21.5 µg/mL | – | –
CCCC[C@@]1(O)CC[C@]2(CC[C@H](C)[C@@H](C/C=C(C)/C=C/[C@H](O)[C@@H](C)/C=C/C(=O)O)O2)O[C@H]1/C=C/C(C)=C/C(=O)O | < 10% | – | – | 169 nM | – | 11.5 µg/mL | – | –
CCCC[C@@]1(OC(=O)CCC(=O)O)CC[C@]2(CC[C@H](C)[C@@H](C/C=C(C)/C=C/C(=O)O)O2)O[C@H]1/C=C/C(C)=C/C(=O)O | < 10% | < 10% | < 10% | > 1730 nM | < 10% | – | – | –
CCCC[C@@]1(OC(=O)CCC(=O)O)CC[C@]2(CC[C@H](C)[C@@H](C/C=C(C)/C=C/[C@H](O[Si](C)(C)C(C)(C)C)[C@@H](C)/C=C/C(=O)O)O2)O[C@H]1/C=C/C(C)=C/C(=O)O | < 10% | – | – | > 1290 nM | – | 5.9 µg/mL | – | –
CCCC[C@@]1(OC(=O)CCC(=O)O)CC[C@]2(CC[C@H](C)[C@@H](C/C=C(C)/C=C/[C@H](O)[C@@H](C)/C=C/C(=O)O)O2)O[C@H]1/C=C/C(C)=C/C(=O)OC | > 80% | < 10% | 10% | > 1480 nM | > 80% | 3.1 µg/mL | < 10% | –
CCCC[C@@]1(OC(=O)CCC(=O)O)CC[C@]2(CC[C@H](C)[C@@H](C/C=C(C)/C=C/[C@@H](O)[C@@H](C)CCC(=O)O)O2)O[C@H]1/C=C/C(C)=C/C(=O)O [2,3-DIHYDRO-5-EPIREVEROMYCIN A] | 50% | < 10% | < 10% | 88 nM | < 10% | 0.82 µg/mL | – | –
CCCC[C@@]1(OC(=O)CCC(=O)O)CC[C@]2(CC[C@H](C)[C@@H](C/C=C(C)/C=C/[C@H](OC)[C@@H](C)/C=C/C(=O)O)O2)O[C@H]1/C=C/C(C)=C/C(=O)O | < 10% | < 10% | – | 554 nM | – | >15 µg/mL | – | –
CCCC[C@@]1(OC(=O)CCC(=O)O)CC[C@]2(CC[C@H](C)[C@@H](C/C=C(\C)COC(=O)CCC(=O)O)O2)O[C@H]1/C=C/C(C)=C/C(=O)O | < 10% | < 10% | < 10% | > 1570 nM | < 10% | >15 µg/mL | – | –
CCCC[C@@]1(OC(=O)CCC(=O)O)CC[C@]2(CC[C@H](C)[C@@H](C/C=C(C)/C=C/[C@H](OC(C)=O)[C@@H](C)/C=C/C(=O)O)O2)O[C@H]1/C=C/C(C)=C/C(=O)O | > 80% | < 10% | 50% | > 1420 nM | > 80% | 0.46 µg/mL | < 10% | –
CCCC[C@@]1(OC(=O)CCC(=O)O)CC[C@]2(CC[C@H](C)[C@@H](C/C=C(C)/C=C/[C@H](O)[C@@H](C)/C=C/C(=O)OC)O2)O[C@H]1/C=C/C(C)=C/C(=O)O | > 80% | 20% | > 80% | 313 nM | > 80% | 2 µg/mL | < 10% | –
CCCC[C@@]1(OC(=O)CCC(=O)O)CC[C@]2(CC[C@H](C)[C@@H](CCO)O2)O[C@H]1/C=C/C(C)=C/C(=O)O | < 10% | < 10% | < 10% | > 2010 nM | < 10% | – | – | –
CCCC[C@@]1(OC(=O)CCC(=O)O)CC[C@]2(CC[C@H](C)[C@@H](C/C=C(C)/C=C/[C@H](O)[C@@H](C)CO)O2)O[C@H]1/C=C/C(C)=C/C(=O)O | > 80% | < 10% | < 10% | 36.9 nM | 20% | 6.31 µg/mL | < 10% | < 10%
CCCC[C@@]1(OC(=O)CCC(=O)O)CC[C@]2(CC[C@H](C)[C@@H](C/C=C(\C)CO)O2)O[C@H]1/C=C/C(C)=C/C(=O)O | < 10% | < 10% | < 10% | > 1860 nM | < 10% | – | – | –
CCCC[C@@]1(OC(=O)CCC(=O)O)CC[C@]2(CC[C@H](C)[C@@H](C/C=C(C)/C=C/CO)O2)O[C@H]1/C=C/C(C)=C/C(=O)O | < 10% | < 10% | < 10% | 996 nM | < 10% | – | – | –
CCCC[C@]1([C@H](/C=C/C(C)=C/C(=O)O)OC(=O)CCC(=O)O)CC[C@]2(CC[C@H](C)[C@@H](C/C=C(C)/C=C/[C@H](O)[C@@H](C)/C=C/C(=O)O)O2)O1 [REVEROMYCIN B] | < 10% | < 10% | – | > 1510 nM | – | >15 µg/mL | – | –
